Results: paper PMC9653409, “Generative deep learning enables the discovery of a potent and selective RIPK1 inhibitor” (Nature Communications, 2022)
Where “and” joins values, the source holds several entries; their conditions need not be identical. Equal values may be shown once.

Key:
[1] = tested on: RIPK1 knockout HT29 cells; test: TSZ treatment of RIPK1 knockout HT29 cells (CCK8); assay type: cell-based; settings: Homo sapiens, HT-29, read-out: Cell Viability (%) Average
Method: Cell necroptosis protection assays were performed in 96-well cell culture plates. Cells were plated in each well and cultured at 37 °C overnight. […] The cell survival rate was determined using a CCK8 cell viability assay kit and CLARIOstar (v5.61). […] All experiments were performed at least two times, and each EC50 value was expressed as mean ± standard deviation (SD).
The lentiCRISPRv2 vector targeting RIPK1 (sgRNA, 5’- […]-3’) was constructed by the Azenta company. HEK 293 T cells were transfected with lentiCRISPRv2 targeting RIPK1 and empty vector using Hieff Trans^TM Liposomal Transfection Reagent (Yeasen), respectively. […] The concentrated viruses were added to HT29 cells along with 8 μg/mL of polybrene (Yeasen) to enhance transfection efficiency. The infection assay was repeated in the next day under the same conditions. Finally, HT29 cells were screened with 3 μg/mL puromycin. Western blot analysis was used to confirm the RIPK1 deletion.

IL-6 = test: TNFα-induced SIRS mouse model: serum IL-6 (ELISA); assay type: in vivo, C57BL/6 female mice
Method: The body temperatures of the mice were continuously monitored until 6 h after TNFα administration. At 6 h after TNFα injection, four mice in each group were killed at random, and the serums, heart, liver, spleen, lung, and kidney tissues were collected for analysis.
In the TNFα-induced SIRS model, at 6 h after TNFα injection, four mice in each group were killed at random, and the serums were collected, the serum concentrations of IL-1β and IL-6 were measured using ELISA kits (Neobioscience Technology) according to manufacturer’s instructions. […] The supernatant was collected by sequential centrifugation at 500 × g for 10 min and 3000 × g for 10 min. The concentrations of cytokines TNFα, IL-6, and IL-1β were measured using ELISA kits (Neobioscience Technology).

DSS-induced IBD = DSS-induced IBD mouse model: survival; assay type: in vivo, C57BL/6 female mice; set-up: key to 1 means death, 0 means survival: 1 means death; 0 means survival
Method: DSS (3% w/v) was administered in drinking water ad libitum for 7 d (from day 0 to day 7). DSS solution was replaced three times on day 2, day 4, and day 6. […] Three mice in each group were killed at random on day 7, and distal colon tissues were collected for analysis. The mice weight and survival rate were recorded daily.

CC(C)C(=O)Nc1nc2cc(-c3ccc4c(c3)c(C(=O)NC(C)c3ccccc3)cn4C)ccn2n1 (stereo not shown) [RI-962]
viability at 0.000169 µM ([1]; 0.000169 μM + TSZ): 89.4%
viability at 0.000508 µM ([1]; 0.000508 μM + TSZ): 103%
viability at 0.001524 µM ([1]; 0.001524 μM + TSZ): 87.5%
viability at 0.004572 µM ([1]; 0.004572 μM + TSZ): 87.3%
viability at 0.013717 µM ([1]; 0.013717 μM + TSZ): 90.8%
viability at 0.041152 µM ([1]; 0.041152 μM + TSZ): 90.1%
viability at 0.123457 µM ([1]; 0.123457 μM + TSZ): 94.4%
viability at 0.37037 µM ([1]; 0.370370 μM + TSZ): 104%
viability at 1.11111 µM ([1]; 1.111111 μM + TSZ): 97.9%
concentration of IL-6 (IL-6; 40 mg/kg i.p., 6 h after TNFα): remarkably reduced
IL-6 (IL-6; Figure 8d, individual replicates 1-4): 652.9 pg/mL and 1655 pg/mL and 2421 pg/mL and 1071 pg/mL
survival rate (DSS-induced IBD; 40 mg/kg i.p. once a day for 10 d, 3% DSS 7 d): 100%
1 means death, 0 means survival (DSS-induced IBD; Figure 9f, individual mice, time 14): 0
